{
  "source": "patent US20220265629A1",
  "about": "“TREATMENT OF SYSTOLIC DYSFUNCTION AND HEART FAILURE WITH REDUCED EJECTION FRACTION WITH THE COMPOUND (R)-4-(1-((3-(DIFLUOROMETHYL)-1-METHYL-1H-PYRAZOL-4-YL)SULFONYL)-1-FLUOROETHYL)-N-(ISOXAZOL-3-YL)PIPERIDINE-1-CARBOXAMIDE” (MyoKardia, Inc., priority 2019, published 2022)",
  "test": "Single ascending oral dose study in healthy volunteers: plasma pharmacokinetics",
  "format": "in vivo, human",
  "settings": "human, plasma, oral; for concentration at 6 h: 6 Hours Postdose; for concentration at 12 h: 12 Hours Postdose; for concentration at 24 h: 24 Hours Postdose; for concentration at 48 h: 48 Hours Postdose; for concentration at 72 h: 72 Hours Postdose",
  "text": "This example describes the first-in-human study of Compound I. Based on its mechanism of action, Compound I may offer a targeted therapy for patients with DCM caused by genetic or nongenetic mechanisms. The study was a randomized, double-blind, placebo-controlled, sequential group, single-ascending (oral) close study in healthy subjects aged 18-55 years. Eight dosing cohorts, each comprising eight healthy subjects, were enrolled. Within each cohort, subjects were randomized 6:2 to Compound I:placebo.\nSubjects were resident at the clinical site for up to 5 days and 4 nights, from Day −1 (the day before dosing) to Day 4, and received a single dose of Compound I or placebo on Day 1. ECG telemetry was initiated 1 hour preclose and continued through 48 hours postclose (Day 3). Any subject with a preclose resting HR≥80 beats per minute was considered ineligible and not treated. […] Subjects returned for a safety follow-up visit 7 days (±1 day) after dosing.\nAll randomized study subjects received either Compound I or matching placebo as a single oral dose after a fasting period of at least 6 hours. Compound I drug substance is a crystalline, free-base, synthetic molecule with a molecular weight of 435.4 g/mol.\nCompound I was provided as a powder for oral suspension. Placebo was provided as calcium carbonate powder. Both treatments were closed orally as a suspension. The suspension was made using Ora-Plus® suspending vehicle (Perrigo) and a cherry syrup flavoring vehicle (Humco), mixed 50% to 50%. The suspension was followed by approximately 100 mL water. The suspension was made up within 14 days from the time in which it was closed which was consistent with the stability data on the suspension. The suspension was made up so the volume administered to the subjects who received Compound I was the same at 20 mL.\nEach subject received a close according to the cohort in which they were enrolled. Cohorts were enrolled sequentially, with each cohort receiving an escalated dose of Compound I. The closes administered were 3 mg, 10 mg, 25 mg, 50 mg, 100 mg, 175 mg, 350 mg, and 525 mg, respectively.\nThe concentrations of Compound I in human plasma and urine were quantitated by high performance liquid chromatography with tandem mass spectrometric detection (LC MS/MS) (Biological sample analysis study report Alturas AD17-726). Plasma samples were extracted by protein precipitation with acetonitrile containing internal standard MYK-5654. The calibration curves were linear over concentration range of 0.500 to 1000 ng/mL with a lower limit of quantification (LLOQ) of 0.500 ng/mL.\nThe PK Population included all subjects who received Compound I. Blood samples were collected for PK assessments. The actual timing of the samples may have been modified and/or up to an additional 2 samples may have been requested by the SRC after review of the data from previous cohorts. It was important that PK sampling occurred as closely as possible to the scheduled time (±10%). Both blood and urine samples were used for PK assessments.\nIn addition, for subjects who received placebo, a single plasma sample near the predicted tmax of Compound I was evaluated to confirm the lack of circulating Compound I. Plasma concentration data for Compound I was summarized using descriptive statistics, including mean, standard deviation (SD), median, minimum, and maximum values, and percent coefficient of variation. Other PK parameters included (but were not limited to) Cmax, tmax, AUC, t1/2, and MRT. Additionally, the apparent terminal-phase terminal half-life was calculated. The close proportionality of AUC and Cmax was explored.",
  "key": {"[1]": {"settings": "350 mg, 350 mg, read-out: Plasma concentration, Mean"}, "[2]": {"settings": "350 mg, 350 mg, read-out: Plasma concentration, Median"}, "[3]": {"settings": "350 mg, 350 mg, read-out: Plasma concentration, Geometric Mean"}, "[4]": {"settings": "525 mg, 525 mg, read-out: Plasma concentration, Geometric Mean"}, "[5]": {"settings": "525 mg, 525 mg, read-out: Plasma concentration, Mean"}, "[6]": {"settings": "525 mg, 525 mg, read-out: Plasma concentration, Median"}},
  "note": "Read-outs that look alike come from different tables or passages of the source.",
  "data": [
    {"smiles": "Cn1cc(S(=O)(=O)[C@@](C)(F)C2CCN(C(=O)Nc3ccon3)CC2)c(C(F)F)n1", "note": "[Compound I, (R)-4-(1-((3-(difluoromethyl)-1-methyl-1H-pyrazol-4-yl)sulfonyl)-1-fluoroethyl)-N-(isoxazol-3-yl)piperidine-1-carboxamide]", "values": [
      {"measurement": "concentration at 6 h", "setting": "[1]", "value": 2660, "unit": "ng/mL"},
      {"measurement": "concentration at 6 h", "setting": "[2]", "value": 2550, "unit": "ng/mL"},
      {"measurement": "concentration at 12 h", "setting": "[3]", "value": 2090, "unit": "ng/mL"},
      {"measurement": "concentration at 12 h", "setting": "[1]", "value": 2140, "unit": "ng/mL"},
      {"measurement": "concentration at 12 h", "setting": "[2]", "value": 2120, "unit": "ng/mL"},
      {"measurement": "concentration at 24 h", "setting": "[3]", "value": 1280, "unit": "ng/mL"},
      {"measurement": "concentration at 24 h", "setting": "[1]", "value": 1320, "unit": "ng/mL"},
      {"measurement": "concentration at 24 h", "setting": "[2]", "value": 1340, "unit": "ng/mL"},
      {"measurement": "concentration at 48 h", "setting": "[3]", "value": 329, "unit": "ng/mL"},
      {"measurement": "concentration at 48 h", "setting": "[1]", "value": 373, "unit": "ng/mL"},
      {"measurement": "concentration at 48 h", "setting": "[2]", "value": 350, "unit": "ng/mL"},
      {"measurement": "concentration at 72 h", "setting": "[3]", "value": 101, "unit": "ng/mL"},
      {"measurement": "concentration at 72 h", "setting": "[1]", "value": 128, "unit": "ng/mL"},
      {"measurement": "concentration at 72 h", "setting": "[2]", "value": 111, "unit": "ng/mL"},
      {"measurement": "AUC(0-t)", "setting": "350 mg, read-out: AUC0-24, Geometric Mean", "value": 44700, "unit": "ng·h/mL"},
      {"measurement": "AUC(0-t)", "setting": "350 mg, read-out: AUC0-24, Mean", "value": 45600, "unit": "ng·h/mL"},
      {"measurement": "AUC(0-t)", "setting": "350 mg, read-out: AUC0-24, Median", "value": 45000, "unit": "ng·h/mL"},
      {"measurement": "AUC(0-t)", "setting": "350 mg, read-out: AUC0-48, Geometric Mean", "value": 64200, "unit": "ng·h/mL"},
      {"measurement": "AUC(0-t)", "setting": "350 mg, read-out: AUC0-48, Mean", "value": 65900, "unit": "ng·h/mL"},
      {"measurement": "AUC(0-t)", "setting": "350 mg, read-out: AUC0-48, Median", "value": 66400, "unit": "ng·h/mL"},
      {"measurement": "AUC(0-t)", "setting": "350 mg, read-out: AUC0-last, Geometric Mean", "value": 73200, "unit": "ng·h/mL"},
      {"measurement": "AUC(0-t)", "setting": "350 mg, read-out: AUC0-last, Mean", "value": 76300, "unit": "ng·h/mL"},
      {"measurement": "AUC(0-t)", "setting": "350 mg, read-out: AUC0-last, Median", "value": 76200, "unit": "ng·h/mL"},
      {"measurement": "AUC(0-inf)", "setting": "350 mg, read-out: AUC0-∞, Geometric Mean", "value": 73600, "unit": "ng·h/mL"},
      {"measurement": "AUC(0-inf)", "setting": "350 mg, read-out: AUC0-∞, Mean", "value": 76700, "unit": "ng·h/mL"},
      {"measurement": "AUC(0-inf)", "setting": "350 mg, read-out: AUC0-∞, Median", "value": 76200, "unit": "ng·h/mL"},
      {"measurement": "Cmax", "setting": "350 mg, read-out: Cmax, Geometric Mean", "value": 2790, "unit": "ng/mL"},
      {"measurement": "Cmax", "setting": "350 mg, read-out: Cmax, Mean", "value": 2820, "unit": "ng/mL"},
      {"measurement": "Cmax", "setting": "350 mg, read-out: Cmax, Median", "value": 2900, "unit": "ng/mL"},
      {"measurement": "half-life", "setting": "350 mg, read-out: Half-Life Lambda Z, Geometric Mean (converted)", "value": 14.3, "unit": "h"},
      {"measurement": "half-life", "setting": "350 mg, read-out: Half-Life Lambda Z, Mean (converted)", "value": 14.7, "unit": "h"},
      {"measurement": "half-life", "setting": "350 mg, read-out: Half-Life Lambda Z, Median (converted)", "value": 14.5, "unit": "h"},
      {"measurement": "MRT", "setting": "350 mg, read-out: Mean Residence Time, Geometric Mean", "value": 22.4, "unit": "h"},
      {"measurement": "MRT", "setting": "350 mg, read-out: Mean Residence Time, Mean", "value": 22.8, "unit": "h"},
      {"measurement": "MRT", "setting": "350 mg, read-out: Mean Residence Time, Median", "value": 22.7, "unit": "h"},
      {"measurement": "Tmax", "setting": "350 mg, read-out: Tmax, Geometric Mean", "value": 4.84, "unit": "h"},
      {"measurement": "Tmax", "setting": "350 mg, read-out: Tmax, Mean", "value": 4.95, "unit": "h"},
      {"measurement": "Tmax", "setting": "350 mg, read-out: Tmax, Median", "value": 5, "unit": "h"},
      {"measurement": "Vd/F", "setting": "350 mg, read-out: Vz/F, Geometric Mean", "value": 98.3, "unit": "L"},
      {"measurement": "Vd/F", "setting": "350 mg, read-out: Vz/F, Mean", "value": 98.8, "unit": "L"},
      {"measurement": "Vd/F", "setting": "350 mg, read-out: Vz/F, Median", "value": 98.4, "unit": "L"},
      {"measurement": "concentration at 6 h", "setting": "[4]", "value": 2160, "unit": "ng/mL"},
      {"measurement": "concentration at 6 h", "setting": "[5]", "value": 2220, "unit": "ng/mL"},
      {"measurement": "concentration at 6 h", "setting": "[6]", "value": 2220, "unit": "ng/mL"},
      {"measurement": "concentration at 12 h", "setting": "[4]", "value": 1780, "unit": "ng/mL"},
      {"measurement": "concentration at 12 h", "setting": "[5]", "value": 1840, "unit": "ng/mL"},
      {"measurement": "concentration at 12 h", "setting": "[6]", "value": 1780, "unit": "ng/mL"},
      {"measurement": "concentration at 24 h", "setting": "[4]", "value": 1190, "unit": "ng/mL"},
      {"measurement": "concentration at 24 h", "setting": "[5]", "value": 1230, "unit": "ng/mL"},
      {"measurement": "concentration at 24 h", "setting": "[6]", "value": 1180, "unit": "ng/mL"},
      {"measurement": "concentration at 48 h", "setting": "[4]", "value": 420, "unit": "ng/mL"},
      {"measurement": "concentration at 48 h", "setting": "[5]", "value": 465, "unit": "ng/mL"},
      {"measurement": "concentration at 48 h", "setting": "[6]", "value": 426, "unit": "ng/mL"},
      {"measurement": "concentration at 72 h", "setting": "[4]", "value": 116, "unit": "ng/mL"},
      {"measurement": "concentration at 72 h", "setting": "[5]", "value": 147, "unit": "ng/mL"},
      {"measurement": "concentration at 72 h", "setting": "[6]", "value": 122, "unit": "ng/mL"}
    ]}
  ]
}
